# In patent publication US7144881B2, “Arylcyclopropylcarboxylic amides as potassium channel openers” (Bristol-Myers Squibb Company, priority 2002, dated 2006):
# What was measured:
# [1] = target: voltage-gated K+ channel KCNQ2 (Homo sapiens, UniProt O43526); experiment: Thallium flux assay for openers of KCNQ potassium channels; format: cell-based; settings: 10 point concentration series, 50% of the maximal response
# Description: A thallium flux assay was used to detect and characterize openers of KCNQ potassium channels. The thallium assay is generally described in International application WO 02/31508 published Apr. 18, 2002. More specifically, the thallium influx assay to detect compounds that block or open the voltage-gated K^+ channel KCNQ2 is described in Example IV of the published WO 02/31508 application.
# For data analysis, the amplitude of the average of the negative controls was subtracted from all wells. The amplitudes of the test compounds were then compared to the value of four standard deviations of the negative control wells. The lowest concentration of a test compound sufficient to generate a signal amplitude greater than or equal to four standard deviations from the amplitude of the negative controls was defined as the minimal active concentration.
# For generating EC50 values, compounds were serially diluted in 1:3 volume increments to produce a 10 point concentration series. EC50 values were calculated by fitting the resulting amplitudes to a single-site logistic equation. EC50 was defined as the concentration of test compound required to yield 50% of the maximal response. Maximal response (Maximal opening) was the largest signal amplitude above the negative control generated by any concentration of a test compound.
# mKCNQ2 channels = target: T1, mKCNQ2 channels (Mus musculus, UniProt Q9Z351); experiment: Whole-cell patch-clamp recordings of mKCNQ2 currents; format: cell-based; settings: HEK 293 stable cell line expressing mKCNQ2
# T1 construct: expressed in transfected cells
# Protocol: Whole-cell patch-clamp recordings were made from an HEK 293 stable cell line expressing mKCNQ2 channels, maintained in culture for 1–2 days. Patch pipettes had initial resistances of 2.5–4 MΩ. Currents were recorded with an EPC-9 amplifier (HEKA, Lambrecht, Germany) controlled with software (Pulse, HEKA) run on a standard lab PC. Series resistance compensation was used during current recording, and set at 80%. The series resistance (R) and cell capacitance (C) were determined electronically by subtracting the capacitive currents at the onset and offset of a 5 mV voltage step. The cancellation of whole-cell capacitive transients was virtually complete in all cells. Analog current signals were low-pass filtered at 2.9 kHz using a four-pole Bessel filter −3 dB) and stored on a local network server computer at a sampling rate of […]. All recordings were performed at room temperature (20–22° C.). The pipette solution contained (mM): KCl, 150; CaCl2, 2.5; EGTA, 5; MgCl2, 1; HEPES, 10; pH to 7.3 with KOH, and Osmolality of 290–300 mOsm. The extracellular solution contained (mM): NaCl, 140; KCl, 2.5; CaCl2, 2.5; MgCl2, 1; glucose, 10; HEPES, 10; pH to 7.3 with NaOH, and Osmolality of 305–310 mOsm […]
SMILES,EC50 [1] [nM],"EC50 (mKCNQ2 channels; @ −40 mV, room temperature) [µM]",Imax (%) (mKCNQ2 channels; Imax from Hill-type curve fit)
"O=C(N[C@@H](CO)c1ccc2ccccc2c1)C1CC1c1ccccc1Cl (stereo partly drawn) [Example 9, 2-(2-Chloro-phenyl)-cyclopropanecarboxylic acid(2-hydroxy-1-naphthalen-2-yl-ethyl)-amide]",22,,
"O=C(N[C@@H](CO)c1ccc2ccccc2c1)C1CC1c1ccccc1F (stereo partly drawn) [Example 11, 2-(2-Fluoro-phenyl)-cyclopropanecarboxylic acid(2-hydroxy-1-naphthalen-2-yl-ethyl)-amide]",1440,,
"O=C(N[C@@H](CO)c1ccc2ccccc2c1)C1CC1c1cc(F)ccc1F (stereo partly drawn) [Example 14, 2-(2,5-Difluoro-phenyl)-cyclopropanecarboxylic acid(2-hydroxy-1-naphthalen-2-yl-ethyl)-amide]",1,,
"C[C@H](NC(=O)[C@@H]1C[C@H]1c1ccccc1)c1cccc(-c2cccnc2)c1 [Example 32, (S)-2-Phenyl-cyclopropanecarboxylicacid [1-(3-pyridin-3-yl-phenyl)-ethyl]-amide]",1,,
"C[C@H](NC(=O)C1CC1c1cccc(F)c1)c1cccc(-c2ccc(Cl)nc2)c1 (stereo partly drawn) [Example 34, (S)-2-(3-Fluoro-phenyl)-cyclopropanecarboxylicacid {1-[3-(6-chloro-pyridin-3-yl)-phenyl]-ethyl}-amide]",2210,,

# Second part, the compound after the results:
EC50 [1] [nM],"EC50 (mKCNQ2 channels; @ −40 mV, room temperature) [µM]",Imax (%) (mKCNQ2 channels; Imax from Hill-type curve fit),SMILES
12,0.597,1232,"O=C(N[C@@H](CO)c1ccc2ccccc2c1)C1CC1c1ccc(F)cc1 (stereo partly drawn) [Example 13, 2-(4-Fluoro-phenyl)-cyclopropanecarboxylic acid(2-hydroxy-1-naphthalen-2-yl-ethyl)-amide]"
1,,,"O=C(N[C@@H](CO)c1ccc2ccccc2c1)C1CC1c1ccccc1 (stereo partly drawn) [Example 15, 2-(phenyl)-cyclopropanecarboxylic acid(2-hydroxy-1-naphthalen-2-yl-ethyl)-amide]"
